# Data reported in patent US6083922A (priority 1997, dated 2000).
# Like-named read-outs stand apart in the source and are kept apart here.
# Assays:
# [1] = test system: drug-sensitive and multidrug-resistant strains of M. tuberculosis; test: Survey of tobramycin MICs; assay type: cell-based; settings: Mycobacterium tuberculosis
# [2] = test system: Multidrug-Resistant Strains of M. tuberculosis; test: microbe, parasite or virus in culture; assay type: cell-based, Mycobacterium tuberculosis; settings: for MIC: Mycobacterium tuberculosis
compound,measurement,setting,value
NC[C@H]1O[C@H](O[C@H]2[C@H](O)[C@@H](O[C@H]3O[C@H](CO)[C@@H](O)[C@H](N)[C@H]3O)[C@H](N)C[C@@H]2N)[C@H](N)C[C@@H]1O [tobramycin],MIC,[1],> 128 µg/mL
same,MIC,[1]; read-out: minimal inhibitory concentrations (MICs),≤ 8 µg/mL
same,sensitivity of multidrug-resistant strains to tobramycin,[2],sensitive and nonresistant
same,MIC,"[2]; read-out: MIC Tobramycin, strain TN565 (resistant to INH, RIF, SM, KAN)",> 128 µg/mL
same,MIC,"[2]; read-out: MIC Tobramycin, strain TN576 (resistant to INH, RIF, SM, EMB, KAN)",> 128 µg/mL
same,MIC,"[2]; read-out: MIC Tobramycin, strain TN587 (resistant to INH, RIF, SM, EMB, KAN)",> 128 µg/mL
same,MIC,"[2]; read-out: MIC Tobramycin, strain TN702 (resistant to INH, SM)",4 µg/mL
same,MIC,"[2]; read-out: MIC Tobramycin, strain TN715 (resistant to INH, RIF, SM)",4 µg/mL
same,MIC,"[2]; read-out: MIC Tobramycin, strain TN768 (resistant to INH, RIF, SM, EMB)",8 µg/mL
same,MIC,"[2]; read-out: MIC Tobramycin, strain TN1195 (resistant to INH, SM)",4 µg/mL
same,MIC,"[2]; read-out: MIC Tobramycin, strain TN1314 (resistant to INH, RIF)",8 µg/mL
same,MIC,"[2]; read-out: MIC Tobramycin, strain TN1811 (resistant to INH, RIF, SM, EMB)",4 µg/mL
same,MIC,"[2]; read-out: MIC Tobramycin, strain TN2015 (resistant to INH, RIF, SM, KAN)",> 128 µg/mL
same,MIC,"[2]; read-out: MIC Tobramycin, strain TN2557 (resistant to INH, RIF, SM)",8 µg/mL
same,MIC,"[2]; read-out: MIC Tobramycin, strain TN3806 (resistant to INH, RIF, SM, EMB, KAN)",> 128 µg/mL
same,MIC,[2]; read-out: activity against multidrug-resistant strains,4 to 8 µg/mL
